The results in this text go back to patent US20200340984A1, “METHODS OF QUANTIFYING CFTR PROTEIN EXPRESSION” (Proteostasis Therapeutics, Inc., priority 2017, published 2020).

SMILES strings stand for the structures.

One experiment deals with CFTR. As to the kind of experiment: Western blot analysis of CFTR expression, H508 cells. Format: cell-based. As to the method: Cells were washed with ice-cold phosphate-buffered saline (PBS) and lysed in Pierce™ immunoprecipitation (IP)-Lysis Buffer (Thermo Fisher Scientific Inc., Grand Island, N.Y.) containing protease inhibitor cocktail (cOmplete™ Mini Protease Inhibitor Cocktail tablets, Roche Diagnostics GmBH, Mannheim, Germany). The cells were incubated with lysis buffer for 30 minutes on ice and centrifuged for 30 minutes at 13,000 rpm. Supernatant was collected and protein concentration was assayed by Pierce™ BCA Protein Assay Kit (Thermo Fisher Scientific). The cell lysates were loaded on a NuPAGE 3%-8% Tris-Acetate Gel (Thermo Fisher Scientific), and transferred onto a nitrocellulose membrane (Trans-Blot® Turbo™ Mini Nitrocellulose Transfer Packs, Bio-Rad, Hercules, Calif.). The membrane was blocked in tris-buffered saline with Tween-20 (TBST) and 5% milk and probed with mouse CFTR antibody (UNC596, 1:500 dilution) at 4° C. with gentle shaking overnight. Next day, membrane was washed three times with (TBST). Then, the membrane was incubated for 2 hours with anti-mouse IgG, horseradish peroxidase (HRP)-linked antibody (Cell Signaling Technology, Beverly, Mass.) at 1:2000 dilution. […]

For the next experiment, the system named is CFTR mRNA. As to the kind of experiment: CFTR mRNA qPCR, HNE-WT cultures. The class given is cell-based, human. As to conditions: qPCR (CFTR/Actin RNA), 10 μM, 24 hours, vs DMSO. Here is the method: Primary human airway epithelial cells of nasal origin (HNEs) from CF donors homozygous for the F508del mutation (HNE CF) and non-CF donors (HNE WT) were purchased from Epithelix Sàrl (Geneva, Switzerland). The cells were cultured and differentiated as previously described (Pranke et al. (2017) Sci Rep. 7(1):7375). The primary cells were apically mucous washed for 30 minutes prior to treatment with the amplifier PTI-CH (1, 3, or 10 μM) and DMSO for 24 hours.
For isolation of RNA from cells, the filters were washed with PBS at room temperature. Total RNA was isolated using the Qiagen RNeasy Plus Universal Mini kit (Qiagen, Oslo, Norway). […] The RNA was quantified by NanoDrop (Thermo Fisher Scientific).
For Reverse transcription, 500 ng of total RNA was used for cells and 150 ng of RNA for nasal brushing sample was reverse transcribed using a High-Capacity Transcription Kit (Thermo Fisher Scientific) according to manufacturer's protocol. The CFTR transcript levels were measured using a human-specific CFTR primer (Catalog Number Hs00357011_ml, FAM-labeled Life Technologies). […]
To further confirm this finding, human nasal epithelial (HNE) cultures obtained from a non-CF (HNE-WT) or CF (HNE-F508del) donor were treated with and amplifier compound. Following 24-hour treatment period, filters were analyzed for either mRNA or protein analyses. […]

On to `O=C(NCCCn1nncc1CO)c1cc(-c2ccccc2)on1` [PTI-CH], for which, in the experiment with CFTR, the “fold changes in CFTR expression” value stood at 1.4 ×. The “increase in CFTR mRNA expression” value in the experiment with CFTR mRNA is listed as “approximately 3 fold”.
